From paper PMC11130353, “Using host-mimicking conditions and a murine cutaneous abscess model to identify synergistic antibiotic combinations effective against Pseudomonas aeruginosa” (Frontiers in Cellular and Infection Microbiology, 2024)
In brackets after ≈: the same amount, converted by molar mass. Entries after “also recorded” stand apart in the source; their conditions may differ. Like-named read-outs stand apart in the source and are kept apart here.

Columns and labels:
[1] = test system: P. aeruginosa LESB58; assay: microbe, parasite or virus in culture; format: cell-based, Pseudomonas aeruginosa; conditions: for Fold change TCM vs MHB (MIC): MIC in TCM vs MIC in MHB; for MIC: Pseudomonas aeruginosa
Experimental: (§1) For susceptibility testing under standard conditions, bacteria were cultured in Muller Hinton Broth MHB (Fort Richards Laboratories). […] Further susceptibility testing was also conducted in MHB supplemented with FBS (5% v/v) and DMEM supplemented with glucose (1% w/v) and MHB (10% v/v).
The minimum inhibitory concentration (MIC) of each antibiotic was determined using the broth microdilution method in 96-well plates. […] Briefly, antibiotics were two-fold serially diluted in MHB or TCM prior to adding 1 × 10^6 CFU mL^-1 bacteria. […] The MIC was recorded as the lowest antibiotic concentration with no visible growth and the median value of at least three biological replicates reported.

[2] = test system: P. aeruginosa PAO1; assay: Minimum inhibitory concentration, broth microdilution; format: cell-based, Pseudomonas aeruginosa; conditions: for Fold change TCM vs MHB (MIC): MIC in TCM vs MIC in MHB; for MIC: Pseudomonas aeruginosa, PAO1
Experimental: as §1
The minimum inhibitory concentration (MIC) of each antibiotic was determined using the broth microdilution method in 96-well plates. […] Briefly, antibiotics were two-fold serially diluted in MHB or TCM prior to adding 1 × 10^6 CFU mL^-1 bacteria. Plates were incubated at 37°C for 22-24 hours. The MIC was recorded as the lowest antibiotic concentration with no visible growth and the median value of at least three biological replicates reported.

[3] = Experimental: Mice used in this study were female Swiss Webster aged approximately 6-7 weeks and sourced from the University of Otago Biomedical Research Facility. […] Briefly, the fur on the back of each mouse was removed by shaving and chemical depilation. Antibiotics were tested for skin toxicity by injecting 50 μL of antibiotic suspension subcutaneously into naïve mice, and subsequent inspection of the skin for inflammation on the next day. P. aeruginosa LESB58 was grown to mid-log phase in dYT broth, washed twice in sterile PBS (Gibco, pH 7.4), and resuspended in PBS to ~1 x 10^8 CFU per 50 μL inoculum. The bacterial suspension (50 μL) was injected subcutaneously into the right side of the dorsum, followed one hour later by 50 μL of antibiotic treatment injected directly into the infected area. […] Combination treatments were administered as a single 50 μL injection containing both antibiotics. The concentration of each antibiotic in the combination was the same as when it was used alone. Progression of the infection was monitored daily, and abscess dimensions were measured on day three using a calliper. On day three, abscess tissue and pus were excised, homogenized in sterile PBS using SPEX SamplePrep 1600 MiniG for five minutes and bacterial CFU counts determined by serial dilution.
[4] = test system: P. aeruginosa LESB58; assay: In vitro synergy, checkerboard assay; format: cell-based, Pseudomonas aeruginosa; conditions: MHB; for FICI, drug combined with CAZ / FICI, drug combined with CZA: FICI <= 0.5 indicates synergy
Experimental: (§2) For susceptibility testing under standard conditions, bacteria were cultured in Muller Hinton Broth MHB (Fort Richards Laboratories). Host mimicking conditions in vitro were simulated using tissue culture medium (TCM) consisting of Dulbecco’s modified Eagle medium (DMEM; Gibco #11965) supplemented with FBS (Moregate Biotech) (5% v/v) and glucose (1% w/v). Further susceptibility testing was also conducted in MHB supplemented with FBS (5% v/v) and DMEM supplemented with glucose (1% w/v) and MHB (10% v/v).
(§3) The P. aeruginosa LESB58.lux strain was used for in vitro synergy experiments with azithromycin in MHB and all antibiotic combinations in TCM to determine bacterial growth (as visual inspection and absorbance measurements were unreliable). Synergy was determined using the checkerboard method ([Berenbaum, 1978]; [Pletzer and Hancock, 2018]) in at least triplicate. Each antibiotic was two-fold serially diluted in sterile water before transferring to a 96-well plate containing 1 × 10^6 CFU mL^-1 bacteria in MHB or TCM. Plates were incubated at 37°C for 22-24 hours. The MIC alone or in combination was recorded as the lowest antibiotic concentration with no visible growth. For experiments using the LESB58.lux strain no visible growth was defined as an at least 95% reduction compared to the no antibiotic growth control in luminescence detected using a ClarioStar plate reader. The fractional inhibitory concentration index (FICI) was calculated as [(MICA in combination)/MICA] + [(MICB in combination)/MICB]. FICI values of 0.5 or below indicated synergy, while values above 0.5 up to and including 1 were taken to indicate additivity. FICI values above 1 indicate indifference or antagonism ([Odds, 2003]).

[5] = test system: P. aeruginosa LESB58-lux; assay: In vitro synergy, checkerboard assay (luminescence readout); format: cell-based, Pseudomonas aeruginosa; conditions: TCM; for FICI, drug combined with CAZ / FICI, drug combined with CZA: FICI <= 0.5 indicates synergy
Experimental: as §2, §3

[6] = test system: P. aeruginosa LESB58; assay: Murine high density subcutaneous skin abscess model; format: in vivo, Pseudomonas aeruginosa; conditions: Colistin
Experimental: Mice used in this study were female Swiss Webster aged approximately 6-7 weeks and sourced from the University of Otago Biomedical Research Facility. […] The subcutaneous abscess infection model was performed as previously described ([Pletzer et al., 2017]) with a higher inoculum. Briefly, the fur on the back of each mouse was removed by shaving and chemical depilation. Antibiotics were tested for skin toxicity by injecting 50 μL of antibiotic suspension subcutaneously into naïve mice, and subsequent inspection of the skin for inflammation on the next day. P. aeruginosa LESB58 was grown to mid-log phase in dYT broth, washed twice in sterile PBS (Gibco, pH 7.4), and resuspended in PBS to ~1 x 10^8 CFU per 50 μL inoculum. The bacterial suspension (50 μL) was injected subcutaneously into the right side of the dorsum, followed one hour later by 50 μL of antibiotic treatment injected directly into the infected area. […] Combination treatments were administered as a single 50 μL injection containing both antibiotics. The concentration of each antibiotic in the combination was the same as when it was used alone. Progression of the infection was monitored daily, and abscess dimensions were measured on day three using a calliper. On day three, abscess tissue and pus were excised, homogenized in sterile PBS using SPEX SamplePrep 1600 MiniG for five minutes and bacterial CFU counts determined by serial dilution. In this model, synergy was defined as being a significant difference between the combination treated group and the amalgamated group of single drug treated animals ([Fantin and Carbon, 1992]; [Pletzer et al., 2018]).
Statistical analysis was performed using GraphPad Prism 9.5.1. Bacterial CFU and abscess size data from in vivo experiments was analysed by Kruskal-Wallace test with Dunn’s correction for multiple comparisons. The data was considered significant when p-values were below 0.05 or 0.01 as indicated.

[7] = LESB58, read-out: MIC in MHB, MHB, 20-24 h
[8] = LESB58, read-out: MIC in TCM, TCM (DMEM + 1% glucose + 5% FBS), 20-24 h
[9] = 50 μL injected subcutaneously, skin inspected next day
[10] = tigecycline and tobramycin groups, compared to the vehicle control, day 3

Row | Compound | Fold change TCM vs MHB (MIC) [1] | MIC [1, 7] [µg/mL] | MIC [1, 8] [µg/mL] | Fold change TCM vs MHB (MIC) [2] | MIC ([2]; read-out: MIC in MHB) [µg/mL] | MIC ([2]; read-out: MIC in TCM) [µg/mL] | Highest tolerated dose tested [3, 9] [mg/mL] | Fold decrease in CAZ MIC, drug combined with CAZ [4] | Fold decrease in CZA MIC, drug combined with CZA [4] | Fold decrease in other MIC, drug combined with CAZ [4] | Fold decrease in other MIC, drug combined with CZA [4] | FICI, drug combined with CAZ [4] | further results
1 | CNC(C)C1CCC(N)C(OC2C(N)CC(N)C(OC3OCC(C)(O)C(NC)C3O)C2O)O1 (stereo not drawn) [GEN, gentamicin] | 20 | 25 (≈ 52.3 µM) | 500 | 16 | 1.56 (≈ 3.27 µM) | 25 (≈ 52.3 µM) | 20 | 8 | 8 | 8 | 8 | 0.25 | Toxic (visible skin irritation, inflammation, blood vessels, swelling) [3, 9]: 40 mg/mL
2 | O=C(O)c1cn(C2CC2)c2cc(N3CCNCC3)c(F)cc2c1=O [CIP, ciprofloxacin] |  | 3.13 (≈ 9.45 µM) | 50 |  | 0.156 (≈ 0.471 µM) | 1.25 (≈ 3.77 µM) | 40 |  |  |  |  | 0.5 | Ceftazidime-avibactam MIC in combination with the named drug [5]: 4 µg/mL; FICI, drug combined with CAZ ([5]; LESB58-lux): 0.63; FICI, drug combined with CZA ([5]; LESB58-lux): 0.63; FICI, drug combined with CZA [4]: 0.5
3 | C[C@@H](O)[C@H]1C(=O)N2C(C(=O)O)=C(S[C@@H]3CN[C@H](C(=O)N(C)C)C3)[C@H](C)[C@H]12 [MEM] |  |  |  |  |  |  |  |  |  |  |  |  | Toxic (visible skin irritation, inflammation, blood vessels, swelling) [3, 9]: 20 mg/mL; Highest tolerated dose tested ([3]; mouse, in vivo, sc): 10 mg/mL
4 | C[C@]1(Cn2ccnn2)[C@H](C(=O)O)N2C(=O)C[C@H]2S1(=O)=O [Tazobactam] |  |  |  |  |  |  |  |  |  |  |  |  | Highest tolerated dose tested ([3]; female, Swiss Webster, mouse, in vivo, sc, 1 day): 25 mg/mL
5 | NC[C@H]1O[C@H](O[C@H]2[C@H](O)[C@@H](O[C@H]3O[C@H](CO)[C@@H](O)[C@H](N)[C@H]3O)[C@H](N)C[C@@H]2N)[C@H](N)C[C@@H]1O [TOB, tobramycin] | 20 | 3.13 (≈ 6.69 µM) | 62.5 | 40 | 0.625 (≈ 1.34 µM) | 25 (≈ 53.5 µM) |  | 4 | 4 | 8 | 8 | 0.38 | Fold decrease in CAZ MIC, drug combined with CAZ ([5]; LESB58-lux): 8; Fold decrease in CZA MIC, drug combined with CZA ([5]; LESB58-lux): 2; Fold decrease in other MIC, drug combined with CAZ ([5]; LESB58-lux): 4; Fold decrease in other MIC, drug combined with CZA ([5]; LESB58-lux): 8; FICI, drug combined with CAZ ([5]; LESB58-lux): 0.38; FICI, drug combined with CZA ([5]; LESB58-lux): 0.63; FICI, drug combined with CAZ ([5]; LESB58-lux, listed as tobramycin): synergised; also recorded: retained; Area of dermoncecrosis, Mean ([6]; tigecycline and tobramycin groups (shared vehicle, CAZ and CZA mice), female Swiss Webster mice, 50 μL s.c. 1 h after infection, day 3, CAZ or CZA 50, CST 1.25, TGC 2.5, TOB 2 mg/mL, vehicle 0.9% saline): 55.6 mm^2; Area of dermoncecrosis, % reduction [6, 10]: 40.9%; CFU per abscess, Fold change [6, 10]: -5.4; Area of dermoncecrosis, % reduction ([6]; tigecycline and tobramycin groups, compared to the vehicle control, day 3, listed as tobramycin): 41%; CFU per abscess, Geometric mean ([6]; tigecycline and tobramycin groups, day 3): 4.5 × 10^7 CFU per abscess; Fold reduction of bacterial load (CFU) relative to vehicle ([6]; tigecycline, tobramycin experiments): ~5; FICI, drug combined with CAZ ([4]; listed as tobramycin): < 0.4; FICI, drug combined with CZA ([4]; listed as tobramycin): < 0.4
6 | C[C@H]1[C@H](NC(=O)/C(=N\OC(C)(C)C(=O)O)c2csc(N)n2)C(=O)N1S(=O)(=O)O [ATM, aztreonam] | 8 | 62.5 (≈ 144 µM) | 500 | 1 | 12.5 (≈ 28.7 µM) | 12.5 (≈ 28.7 µM) | 25 | 2 | 2 | 4 | 4 | 0.75 | FICI, drug combined with CZA [4]: 0.75
7 | Cn1c(N)c(NC(=O)NCCN)c[n+]1CC1=C(C(=O)O)N2C(=O)[C@@H](NC(=O)/C(=N\OC(C)(C)C(=O)[O-])c3nsc(N)n3)[C@H]2SC1 [Ceftolozane] |  |  |  |  |  |  | 50 |  |  |  |  |  | 
